Laboratory results reported in ChEMBL document CHEMBL1129819, “Polysubstituted 2H-pyran-2-ones: A new class of hepatoprotective agents” (1997).

Columns and labels:
Type in all cases: functional
Rattus norvegicus [1] = experiment: Percent protection in carbon tetrachloride-induced model using alkaline phosphatase(ALP) when peroral administration of compound 6 mg/kg for 7 days; conditions: route oral
Rattus norvegicus [2] = experiment: Percent protection in galactosamine-induced model using alkaline phosphatase(ALP) when peroral administration of compound 6 mg/kg for 7 days; conditions: route oral
Rattus norvegicus [3] = experiment: Percent protection in alcohol-induced model using glutamate oxaloacetate transaminase(GOT) when peroral administration of compound 12 mg/kg for 7 days; conditions: route oral
Rattus norvegicus [4] = experiment: Percent protection in alcohol-induced model using glutamate dehydrogenase(GIDH) when peroral administration of compound 6 mg/kg for 7 days; conditions: route oral
Rattus norvegicus [5] = experiment: Percent protection against thioacetamide-induced toxicity in rats using glutamate oxaloacetate transaminase (GOT) when peroral administration of compound 6 mg/kg for 7 days; conditions: route oral
Rattus norvegicus [6] = experiment: Percent protection in carbon tetrachloride-induced model using acid phosphatase(ACP) when peroral administration of compound 6 mg/kg for 7 days; conditions: route oral
Rattus norvegicus [7] = experiment: Percent protection in alcohol-induced model using acid phosphatase(ACP) when peroral administration of compound 12 mg/kg for 7 days; conditions: route oral
Rattus norvegicus [8] = experiment: Percent protection in carbon tetrachloride-induced model using glutamate oxaloacetate transaminase(GOT) when peroral administration of compound 6 mg/kg for 7 days; conditions: route oral
Rattus norvegicus [9] = experiment: Percent protection in paracetamol-induced model using acid phosphatase(ACP) when peroral administration of compound 6 mg/kg for 7 days; conditions: route oral
Rattus norvegicus [10] = experiment: Percent protection in paracetamol-induced model using alkaline phosphatase(ALP) at peroral dose of 6 mg/kg for 7 days; conditions: route oral
Rattus norvegicus [11] = experiment: Percent protection in carbon tetrachloride-induced model using glutamate pyruvate transaminase(GPT) when peroral administration of compound 6 mg/kg for 7 days; conditions: route oral
Rattus norvegicus [12] = experiment: Percent protection against thioacetamide-induced toxicity in rats using glutamate pyruvate transaminase (GPT) when peroral administration of compound 6 mg/kg for 7 days; conditions: route oral
Rattus norvegicus [13] = experiment: Percent protection against thioacetamide-induced toxicity in rats using glutamate dehydrogenase (GIDH) when peroral administration of compound 6 mg/kg for 7 days; conditions: route oral
Rattus norvegicus [14] = experiment: Percent protection in alcohol-induced model using glutamate pyruvate transaminase(GPT) when peroral administration of compound 6 mg/kg for 7 days; conditions: route oral
Rattus norvegicus [15] = experiment: Percent protection in paracetamol-induced model using glutamate oxaloacetate transaminase(GOT) when peroral administration of compound 6 mg/kg for 7 days; conditions: route oral
Rattus norvegicus [16] = experiment: Percent protection in alcohol-induced model using alkaline phosphatase(ALP) when peroral administration of compound 12 mg/kg for 7 days; conditions: route oral
Rattus norvegicus [17] = experiment: Percent protection in galactosamine-induced model using glutamate oxaloacetate transaminase(GOT) when peroral administration of compound 6 mg/kg for 7 days; conditions: route oral
Rattus norvegicus [18] = experiment: Percent protection in alcohol-induced model using glutamate oxaloacetate transaminase(GOT) when peroral administration of compound 6 mg/kg for 7 days; conditions: route oral
Rattus norvegicus [19] = experiment: Percent protection in alcohol-induced model using acid phosphatase(ACP) at peroral dose of 6 mg/kg for 7 days; conditions: route oral
Rattus norvegicus [20] = experiment: Percent protection against thioacetamide-induced toxicity in rats using alkaline phosphatase (ALP) when peroral administration of compound 6 mg/kg for 7 days; conditions: route oral
Rattus norvegicus [21] = experiment: Percent protection in galactosamine-induced model using acid phosphatase(ACP)when peroral administration of compound 6 mg/kg for 7 days; conditions: route oral
Rattus norvegicus [22] = experiment: Percent protection in paracetamol-induced model using glutamate pyruvate transaminase(GPT) when peroral administration of compound 6 mg/kg for 7 days; conditions: route oral
Rattus norvegicus [23] = experiment: Percent protection in alcohol-induced model using alkaline phosphatase(ALP) when peroral administration of compound 6 mg/kg for 7 days; conditions: route oral
Rattus norvegicus [24] = experiment: Percent protection in paracetamol-induced model using glutamate dehydrogenase(GIDH) when peroral administration of compound 6 mg/kg for 7 days; conditions: route oral
Rattus norvegicus [25] = organism: Rattus norvegicus; experiment: Percent protection against thioacetamide-induced toxicity in rats using acid phosphatase(ACP); set-up: concentration or dose not given beside the values
Rattus norvegicus [26] = experiment: Percent protection in alcohol-induced model using glutamate dehydrogenase(GIDH) when peroral administration of compound 12 mg/kg for 7 days; conditions: route oral
Rattus norvegicus [27] = experiment: Percent protection in carbon tetrachloride-induced model using glutamate dehydrogenase(GIDH) when peroral administration of compound 6 mg/kg for 7 days; conditions: route oral
Rattus norvegicus [28] = experiment: Percent protection in galactosamine-induced model using glutamate pyruvate transaminase(GPT) when peroral administration of compound 6 mg/kg for 7 days; conditions: route oral
Rattus norvegicus [29] = experiment: Percent protection in alcohol-induced model using glutamate pyruvate transaminase(GPT) at peroral dose of 12 mg/kg for 7 days; conditions: route oral
Rattus norvegicus [30] = experiment: Percent protection in galactosamine-induced model using glutamate dehydrogenase(GIDH) when peroral administration of compound 6 mg/kg for 7 days; conditions: route oral

In the case of `CSc1cc(-c2ccc(Cl)cc2)oc(=O)c1C#N`, the Protection (Rattus norvegicus [1]) is reported as 57%, the Protection (Rattus norvegicus [2]) is reported as 68% and the Protection (Rattus norvegicus [3]) is reported as 58%. It also gave a Protection (Rattus norvegicus [4]) of 40%, a Protection (Rattus norvegicus [5]) of 68% and a Protection (Rattus norvegicus [6]) of 70%. For the same molecule, the Protection (Rattus norvegicus [7]) was 74%, the Protection (Rattus norvegicus [8]) was 59% and the Protection (Rattus norvegicus [9]) was 90%. The Protection (Rattus norvegicus [10]) was 73%, the Protection (Rattus norvegicus [11]) was 67% and the Protection (Rattus norvegicus [12]) was 69%. For the same molecule, the Protection (Rattus norvegicus [13]) was 51%, the Protection (Rattus norvegicus [14]) was 48% and the Protection (Rattus norvegicus [15]) was 73%. It also gave a Protection (Rattus norvegicus [16]) of 56%, a Protection (Rattus norvegicus [17]) of 86% and a Protection (Rattus norvegicus [18]) of 34%. The Protection (Rattus norvegicus [19]) was 53%, the Protection (Rattus norvegicus [20]) was 65% and the Protection (Rattus norvegicus [21]) was 66%. For the same molecule, the Protection (Rattus norvegicus [22]) was 81%, the Protection (Rattus norvegicus [23]) was 24% and the Protection (Rattus norvegicus [24]) was 54%. It also gave a Protection (Rattus norvegicus [25]) of 59%, a Protection (Rattus norvegicus [26]) of 62% and a Protection (Rattus norvegicus [27]) of 58%. For the same molecule, the Protection (Rattus norvegicus [28]) was 76%, the Protection (Rattus norvegicus [29]) was 69% and the Protection (Rattus norvegicus [30]) was 57%.
